“Also recorded” adds a separate entry of the source. One block for each compound: values may come before it.
Tests used:
[1] = Differential scanning calorimetry (DSC) of DPPC model membranes; format: physicochemical; settings: pH 7.4, molar ratios 0.06–0.12
Excerpt: To investigate the interaction of the tricyclic 1,2-thiazine derivatives (Table 1) with model membranes, we used the differential scanning calorimetry (DSC) method. As a model of the phospholipid membrane, the multibilayers made of 1,2-dipalmitoyl-n-glycero-3-phosphatidylcholine (DPPC) in a buffer solution (pH 7.4) were used.
Tris-EDTA buffer solution (pH 7.4) and 1,2-dipalmitoyl-n-glycero-3-phosphatidyl- choline (DPPC) were purchased from Sigma-Aldrich, Merck KGaA, Darmstadt, Germany. None of the compounds studied were soluble in water, so their chloroform (P.P.H. STANLAB, Lublin, Poland, analytical grade) solutions were used for calorimetric experiments.
For each sample, 2 mg of phospholipid (DPPC) were dissolved in the appropriate amount of chloroform stock solution (5 mM) of the compounds studied (the compound: DPPC molar ratios in the samples were: 0.06, 0.08, 0.10, 0.12). The solvent was then evaporated under a stream of nitrogen gas. After that, the residual solvent was evacuated under vacuum (Rotary evaporator, Büchy Poland, Warsaw, Poland) for 2 h. In this process, the phospholipid was transferred onto the dry film on the inner surface of the Eppendorf tube. Samples were hydrated by 20 μL of Tris–EDTA buffer (pH 7.4). […] Then, the samples were transferred into aluminum sample pans of the Concavus® type (Netzsch GmbH & Co., Selb, Germany) and sealed. A pan of the same type, filled with 20 μL of Tris–EDTA buffer (pH 7.4), was employed as a reference. Measurements of the DPPC main phase transition were performed using the heat-flow measurement method at a heating rate of 1 °C per minute over a temperature range of 30–50 °C in a nitrogen dynamic atmosphere (25 mL/min). Data were analyzed off-line using Netzsch Proteus® 7.1.0 (Netzsch GmbH & Co., Selb, Germany) analysis software. The transition enthalpies were stated in [J/g]. The measured heat was normalized per gram of lipid. […] All samples were weighed on a Sartorius CPA225D-0CE analytical balance (Sartorius AG, Gottingen, Germany) with a resolution of 0.01 mg.

[2] = target: T1, ovine COX-1 (Ovis aries, UniProt P05979); assay: COX colorimetric inhibitor screening assay, COX-1
T1 sequence (P05979 25-600): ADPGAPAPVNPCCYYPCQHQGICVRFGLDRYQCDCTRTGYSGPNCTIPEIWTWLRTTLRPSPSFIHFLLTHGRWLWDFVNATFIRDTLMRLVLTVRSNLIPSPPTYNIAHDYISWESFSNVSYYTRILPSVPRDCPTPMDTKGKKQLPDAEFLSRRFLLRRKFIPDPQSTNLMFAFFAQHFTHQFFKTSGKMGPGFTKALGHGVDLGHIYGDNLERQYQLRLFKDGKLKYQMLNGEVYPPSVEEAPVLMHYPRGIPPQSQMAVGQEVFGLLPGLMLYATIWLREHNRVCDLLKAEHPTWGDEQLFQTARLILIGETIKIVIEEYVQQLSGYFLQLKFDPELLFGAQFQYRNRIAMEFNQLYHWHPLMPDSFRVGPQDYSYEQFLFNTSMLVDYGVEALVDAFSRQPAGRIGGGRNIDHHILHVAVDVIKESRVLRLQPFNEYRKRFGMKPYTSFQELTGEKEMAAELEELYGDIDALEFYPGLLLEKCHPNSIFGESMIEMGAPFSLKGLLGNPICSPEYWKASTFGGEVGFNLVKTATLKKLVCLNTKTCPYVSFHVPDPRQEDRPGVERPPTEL
Procedure: (§2) The selectivity of the compounds for COX-1 or COX-2 was assessed by calculation of the IC50 ratios.
(§3) The compounds were dissolved in ethanol to get the final concentration of 100 µM. Each tested solution of compounds was transferred into a 96-well plate in three repetitions and then incubated for 2 min at RT with prepared reagents according to the manufacturing procedure. This assay measured the peroxidase component of COXs, which is evaluated as monitoring the oxidized form of N, N, N’, N’-tetramethyl-p-phenylenediamine (TMPD). The absorbance was measured using a VariuScan microplate reader at 590 nm. The data were calculated according to 3 steps. First, the average absorbance of all the samples was determined. Second, the absorbance of the background wells was subtracted from the absorbance of 100% of the starting COX-1 and COX-2 activity and the test compound wells.

[3] = target: T2, human recombinant COX-2 (Homo sapiens, UniProt P35354); assay: COX colorimetric inhibitor screening assay, COX-2; settings: for Ratio: COX-2/COX-1: ratio of IC50 values COX-2/COX-1; for COX-2/COX-1 selectivity compared with meloxicam: comparison of IC50 ratios; for COX-2 inhibition effect compared with meloxicam: comparison of IC50 values
T2 sequence (P35354 18-604): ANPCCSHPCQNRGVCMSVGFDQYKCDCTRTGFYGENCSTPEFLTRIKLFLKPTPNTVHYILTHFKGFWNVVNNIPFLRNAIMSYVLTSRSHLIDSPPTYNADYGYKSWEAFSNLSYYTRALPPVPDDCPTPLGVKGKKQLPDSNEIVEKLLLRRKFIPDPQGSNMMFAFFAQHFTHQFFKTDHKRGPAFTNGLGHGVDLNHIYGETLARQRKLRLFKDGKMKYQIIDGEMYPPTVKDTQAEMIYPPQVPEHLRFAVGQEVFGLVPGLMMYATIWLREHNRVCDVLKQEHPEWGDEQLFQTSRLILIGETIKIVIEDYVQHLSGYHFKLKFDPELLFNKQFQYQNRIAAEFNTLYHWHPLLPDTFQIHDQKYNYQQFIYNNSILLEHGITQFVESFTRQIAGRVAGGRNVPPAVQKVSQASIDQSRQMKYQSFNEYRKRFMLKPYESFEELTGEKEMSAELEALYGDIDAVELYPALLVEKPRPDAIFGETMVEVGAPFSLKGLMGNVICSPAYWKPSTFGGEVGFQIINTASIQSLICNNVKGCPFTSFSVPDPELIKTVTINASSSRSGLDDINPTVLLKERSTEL
Procedure: as §2, §3

[4] = test system: NHDF cells; assay: MTT viability assay; format: cell-based, Human; settings: 24 h incubation; for Mitochondrial activity of NHDF cells: 10 µM and 50 µM, compared to control; for Mitochondrial activity of NHDF cells / Cytotoxic effect on NHDF cells: MTT; for Cytotoxic effect on NHDF cells: 10, 50 and 100 µM
Procedure: The viability of the Normal Human Dermal Fibroblasts (NHDF) cells was assessed after 24 h incubation with 10, 50 and 100 µM tested compounds in MTT assay. […] The less than 30% decrease in culture viability was observed only in concentration of 100 µM for compound 6b in comparison to control (i.e., no cytotoxic potential of tested compound). […] Thus, all new compounds were directed to further research.
The study was carried out using the NHDF cell line obtained from ATCC (Manassas, VA, USA). These cells are commonly used to determine the cytotoxicity of new compounds. Cells were cultured at 37 °C in a humidified 5% CO2/95% air atmosphere incubator and passaged twice a week.
(§1) The 1,2-thiazine derivatives were dissolved in DMSO to a stock concentration of 10 mM. All prepared stock solutions were stored at −20 °C for up to 6 months. For the experiment, the compounds tested were used in the concentration range of 10, 50 and 100 μM. […] The abovementioned tested compounds were tested on NHDF cells.
The viability of the cells was assessed after 24 h incubation with 10–100 µM tested compounds in MTT assay. After incubation, cell culture with a 1 mg/mL solution of MTT for 2 h at 37 °C, the formazan crystals were dissolved in isopropanol. The plates were then shaken for 30 min, and the absorbance was measured at 570 nm using VariuScan microplate reader.

[5] = test system: NHDF cells; assay: DCF-DA assay of reactive oxygen species (ROS); format: cell-based, Human; settings: 1 h treatment; 10, 50 and 100 µM; compared to control
Procedure: The level of reactive oxygen species (ROS) was evaluated in DCF-DA assay and nitric oxide (NO) in Griess assay, on NHDF cells. […] This increase may be due to the normal cellular activity due to the increased cell numbers, probably resulting from proliferation.
as §1
Levels of reactive oxygen species (ROS) and nitric oxide (NO) were evaluated in DCF-DA (2′,7′-dichlorofluorescein diacetate) and Griess (cat. No. G7921; Thermo Fisher Scientific, Waltham, MA, USA) assays, respectively. In these assays, the cells were treated with tested compounds only for 1 h. After that time, the 50 µL of supernatant were transferred into new plates to assess the NO level. The remaining supernatant was removed, the cell culture was washed, and the 25 µM DCF-DA solution was added for 1 h at 37 °C. […] The plates with DCF-DA solution were analyzed with the Varioskan LUX microplate reader (λex = 485 nm and λem = 535 nm). The NO level was analyzed by the measurement of the absorbance at 548 nm using VariuScan microplate reader.

Compound: Cc1ccc(C2=C3C(=O)c4ccccc4S(=O)(=O)N3CCCO2)cc1 [Compound 6d, 7,7-dioxo-1-(p-tolyl)-4,5-dihydro-3H-[1,4]oxazepino[4,3-b][1,2]benzothiazin-12-one]
- Effect on DPPC gel-liquid crystalline phase transition parameters (Tm, T½, ΔH) [1]: most pronounced effects
- melting point: 204 to 206 °C
- IC50 [2]: 126 µM
- IC50 [3]: 92.9 µM
- Ratio: COX-2/COX-1 [3]: 0.74

Compound: O=C(C1=C(O)c2ccccc2S(=O)(=O)N1)c1ccccc1 [Compound 4a]
- Mitochondrial activity of NHDF cells [4]: statistically significant increase
- Cytotoxic effect on NHDF cells [4]: no cytotoxic effect was observed
- Level of reactive oxygen species (ROS) [5]: statistically significant increase
- IC50 [2]: 91.2 µM
- IC50 [3]: 54.6 µM
- COX-2/COX-1 selectivity compared with meloxicam [3]: higher COX-2/COX-1 selectivity than for meloxicam
- COX-2 inhibition effect compared with meloxicam [3]: stronger COX-2 inhibition effect than the meloxicam
- Ratio: COX-2/COX-1 [3]: 0.6

Compound: O=C(C1=C(O)c2ccccc2S(=O)(=O)N1)c1ccc(Cl)cc1 [Compound 4c]
- Mitochondrial activity of NHDF cells [4]: statistically significant increase
- Cytotoxic effect on NHDF cells [4]: no cytotoxic effect was observed
- IC50 [2]: 89 µM
- IC50 [3]: 55.9 µM
- COX-2/COX-1 selectivity compared with meloxicam [3]: higher COX-2/COX-1 selectivity than for meloxicam
- COX-2 inhibition effect compared with meloxicam [3]: stronger COX-2 inhibition effect than the meloxicam
- Ratio: COX-2/COX-1 [3]: 0.63

Compound: O=C1C2=C(c3ccccc3)OCCCN2S(=O)(=O)c2ccccc21 [Compound 6a, 7,7-dioxo-1-phenyl-4,5-dihydro-3H-[1,4]oxazepino[4,3-b][1,2]benzothiazin-12-one]
- melting point: 171 to 172 °C
- IC50 [2]: 106 µM
- IC50 [3]: 89.9 µM
- Ratio: COX-2/COX-1 [3]: 0.85

Compound: Cc1ccc(C(=O)C2=C(O)c3ccccc3S(=O)(=O)N2)cc1 [Compound 4d]
- IC50 [2]: 89.3 µM
- IC50 [3]: 55.3 µM
- COX-2/COX-1 selectivity compared with meloxicam [3]: higher COX-2/COX-1 selectivity than for meloxicam
- COX-2 inhibition effect compared with meloxicam [3]: stronger COX-2 inhibition effect than the meloxicam
- Ratio: COX-2/COX-1 [3]: 0.62

Compound: O=C1C2=C(c3ccccc3)OCCN2S(=O)(=O)c2ccccc21 [Compound 5, 6,6-dioxo-1-phenyl-3,4-dihydro-[1,4] oxazino [4,3-b][1,2]benzothiazin-11-one]
- melting point: 182 to 183 °C
- IC50 [2]: 66.1 µM
- IC50 [3]: 56.9 µM
- COX-2 inhibition effect compared with meloxicam [3]: stronger COX-2 inhibition effect than the meloxicam
- Ratio: COX-2/COX-1 [3]: 0.86

Compound: O=C1C2=C(c3ccc(Cl)cc3)OCCCN2S(=O)(=O)c2ccccc21 [Compound 6c, 1-(4-chlorophenyl)-7,7-dioxo-4,5-dihydro-3H-[1,4]oxazepino[4,3-b][1,2]benzothiazin-12-one]
- Effect on DPPC gel-liquid crystalline phase transition parameters (Tm, T½, ΔH) [1]: most pronounced effects
- Mitochondrial activity of NHDF cells [4]: statistically significant increase
- melting point: 168 to 170 °C
- IC50 [2]: 89.8 µM
- IC50 [3]: 94.1 µM
- Ratio: COX-2/COX-1 [3]: 1.05

Compound: O=C1C2=C(c3ccccc3)OCCCCN2S(=O)(=O)c2ccccc21 [Compound 7, 8,8-dioxo-1-phenyl-3,4,5,6-tetrahydro-[1,4]oxazocino[4,3-b][1,2]benzothiazin-13-one]
- melting point: 198 to 201 °C
- IC50 [2]: 86.1 µM
- IC50 [3]: 54 µM
- COX-2/COX-1 selectivity compared with meloxicam [3]: higher COX-2/COX-1 selectivity than for meloxicam
- COX-2 inhibition effect compared with meloxicam [3]: stronger COX-2 inhibition effect than the meloxicam
- Ratio: COX-2/COX-1 [3]: 0.63

- IC50 [2]: 86.9 µM
- IC50 [3]: 95.1 µM
Compound: O=C1C2=C(c3ccc(Br)cc3)OCCCN2S(=O)(=O)c2ccccc21 [Compound 6b, 1-(4-bromophenyl)-7,7-dioxo-4,5-dihydro-3H-[1,4]oxazepino[4,3-b][1,2]benzothiazin-12-one]
- Decrease in culture viability ([4]; 100 µM, in comparison to control): less than 30%

Compound: COc1ccc(C2=C3C(=O)c4ccccc4S(=O)(=O)N3CCCO2)cc1 [Compound 6e, 1-(4-methoxyphenyl)-7,7-dioxo-4,5-dihydro-3H-[1,4]oxazepino[4,3-b][1,2]benzothiazin-12-one]
- Effect on DPPC gel-liquid crystalline phase transition parameters (Tm, T½, ΔH) [1]: most pronounced effects
- melting point: 144 to 145 °C
- IC50 [2]: 115 µM
- IC50 [3]: 56.9 µM
- COX-2/COX-1 selectivity compared with meloxicam [3]: higher COX-2/COX-1 selectivity than for meloxicam; also recorded: most selective inhibitor of COX-2
- COX-2 inhibition effect compared with meloxicam [3]: stronger COX-2 inhibition effect than the meloxicam
- Ratio: COX-2/COX-1 [3]: 0.49

Source: publication PMC8346139, “Synthesis of New Tricyclic 1,2-Thiazine Derivatives with Anti-Inflammatory Activity” (International Journal of Molecular Sciences, 2021)
